Results as given in patent publication US20260001914A1, “MACROCYCLIC PEPTIDES TARGETING KRAS” (Merck Sharp & Dohme LLC, priority 2022, published 2026).
*1 amine or outer side, *2 acyl side, *3 side chain or, on linkers, in order; H or OH if unused. Where a SMILES comes first, the peptide text is derived from it. Bridges are numbered along the chain shown (N, C = ends). [ ]: non-standard residue; d: D form. cBu(1-CO,cis-3-CH2NH) = O=C([C@H]1C[C@@H](CN[*:1])C1)[*:2]; Ala(1-bicyclo(1.1.1)pentyl) = N[C@@H](CC12CC(C1)C2)C(=O)O; NMeNva(5-imidazol-1-yl) = CN[C@@H](CCCn1ccnc1)C(=O)O; Phe(4-guanidino) = N=C(N)Nc1ccc(C[C@H](N)C(=O)O)cc1; X59 = O=C([C@H](Cc1ccc(CN2CCCC2)cc1)N[*:1])[*:2]; X22 = CNC(=N)N(C)CCC[C@@H](C(=O)[*:2])N(C)[*:1]; Ala(pyrimidin-5-yl) = N[C@@H](Cc1cncnc1)C(=O)O; NMePhe(4-Me) = CN[C@@H](Cc1ccc(C)cc1)C(=O)O; X51 = COc1cc(C[C@H](N[*:1])C(=O)[*:2])ncn1; NMeAha = CN[C@@H](CCN=[N+]=[N-])C(=O)O; Phe(2-CN) = N#Cc1ccccc1C[C@H](N)C(=O)O; Phe(2-F) = N[C@@H](Cc1ccccc1F)C(=O)O; NMe3Pal = CN[C@@H](Cc1cccnc1)C(=O)O; X1 = O=C(C12CC(CN[*:1])(C1)C2)[*:2]; X17 = O=C([C@H](CCCCF)N[*:1])[*:2]; X41 = COCCC[C@H](N[*:1])C(=O)[*:2]; NMeF = CN[C@@H](Cc1ccccc1)C(=O)O; PhLac = O=C(O)[C@@H](O)Cc1ccccc1; 3Pal = N[C@@H](Cc1cccnc1)C(=O)O; Ahp(2) = CCCCC[C@H](N)C(=O)O; Cba = N[C@@H](CC1CCC1)C(=O)O; hLeu = CC(C)CC[C@H](N)C(=O)O; αMeC = C[C@](N)(CS)C(=O)O; NMeA = CN[C@@H](C)C(=O)O; Nle = CCCC[C@H](N)C(=O)O

target: KRAS-G12D protein (Homo sapiens, UniProt P01116, G12D); assay: SOS-mediated nucleotide exchange assay (BODIPY-GDP / Tb-streptavidin TR-FRET); format: biochemical
Sequence (P01116 1-188 isoform P01116-2 G12D): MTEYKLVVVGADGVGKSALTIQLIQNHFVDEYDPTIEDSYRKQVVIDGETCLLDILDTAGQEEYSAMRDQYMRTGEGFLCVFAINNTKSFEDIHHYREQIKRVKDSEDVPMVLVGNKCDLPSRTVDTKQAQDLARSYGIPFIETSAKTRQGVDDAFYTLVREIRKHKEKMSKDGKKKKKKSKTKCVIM

| SMILES | EC50 |
| --- | --- |
| CCCC[C@@H]1NC(=O)[C@H](Cc2cncnc2)NC(=O)[C@H](C)N(C)C(=O)[C@H](Cc2ccccc2)OC(=O)C23CC(CNC(=O)[C@H](Cc4ccccc4)N(C)C(=O)[C@H](CCCCF)NC(=O)[C@H](Cc4ccccc4F)NC1=O)(C2)C3 [compound 131, cyclo(FLac-NMeA-PyrimAla-Nle-Phe2F-NleF-NMeF-amBCP)] (cyclo([NMeA][Ala(pyrimidin-5-yl)][Nle][Phe(2-F)][X17][NMeF][X1][PhLac])) | 10.1 nM |
| CC(C)CC[C@@H]1NC(=O)[C@H](Cc2ccccc2F)NC(=O)[C@H](CC23CC(C2)C3)NC(=O)[C@H](Cc2cncnc2)NC(=O)[C@H](C)N(C)C(=O)[C@H](Cc2ccccc2)OC(=O)C23CC(CNC(=O)[C@H](Cc4ccccc4)N(C)C1=O)(C2)C3 [compound 272, cyclo(FLac-NMeA-PyrimAla-AlaPent-Phe2F-hL-NMeF-amBCP)] (cyclo([NMeA][Ala(pyrimidin-5-yl)][Ala(1-bicyclo(1.1.1)pentyl)][Phe(2-F)][hLeu][NMeF][X1][PhLac])) | 477 nM |
| CCCC[C@@H]1NC(=O)[C@H](Cc2cccnc2)NC(=O)[C@H](CCCNC(=N)N)NC(=O)[C@H](Cc2ccccc2)NC(=O)CSC[C@@](C)(C(N)=O)NC(=O)[C@H](Cc2ccccc2)N(C)C(=O)[C@H](CCCC)NC(=O)[C@H](Cc2ccccc2F)NC1=O [compound 160, cyclo(F-R-3Pal-Nle-Phe2F-Nle-NMeF-aMeCl-ClAc)] ({CH2CO}-FR[3Pal][Nle][Phe(2-F)][Nle][NMeF][αMeC]-NH2; thioether N-8) | 12.8 nM |
| CCCCC[C@@H]1NC(=O)[C@H](Cc2ccc(OC)cc2)NC(=O)[C@H](CC2CCC2)NC(=O)[C@H](Cc2ccc(NC(=N)N)cc2)NC(=O)[C@H](CCCN(C)C(=N)NC)N(C)C(=O)[C@H](Cc2ccccc2)NC(=O)CSC[C@@](C)(C(N)=O)NC(=O)[C@H](Cc2ccccc2)N(C)C1=O [compound 381, cyclo(F-NMeArg1MeMe-Phe4Gn-cBuA-TyrOMe-Ahp-NMeF-aMeCl-ClAc)] ({CH2CO}-F[X22][Phe(4-guanidino)][Cba]Y(Me)[Ahp(2)][NMeF][αMeC]-NH2; thioether N-8) | 1.69 nM |
| CCCC[C@@H]1NC(=O)[C@H](Cc2cncnc2)NC(=O)[C@H](C)N(C)C(=O)[C@H](Cc2ccccc2)OC(=O)C23CC(CNC(=O)[C@H](Cc4ccc(C)cc4)N(C)C(=O)[C@H](CCCC)NC(=O)[C@H](Cc4ccccc4F)NC1=O)(C2)C3 [compound 171, cyclo(FLac-NMeA-PyrimAla-Nle-Phe2F-Nle-NMePhe4Me-amBCP)] (cyclo([NMeA][Ala(pyrimidin-5-yl)][Nle][Phe(2-F)][Nle][NMePhe(4-Me)][X1][PhLac])) | 19.1 nM |
| CCCCC[C@@H]1NC(=O)[C@H](Cc2ccccc2C#N)NC(=O)[C@H](CC2CCC2)NC(=O)[C@H](Cc2cccnc2)NC(=O)[C@H](CCCNC(=N)N)NC(=O)[C@H](Cc2ccccc2)NC(=O)CSC[C@@](C)(C(N)=O)NC(=O)[C@H](Cc2ccccc2)N(C)C1=O [compound 375, cyclo(F-R-3Pal-cBuA-Phe2CN-Ahp-NMeF-aMeCl-ClAc)] ({CH2CO}-FR[3Pal][Cba][Phe(2-CN)][Ahp(2)][NMeF][αMeC]-NH2; thioether N-8) | 57.9 nM |
| CCCC[C@@H]1NC(=O)[C@H](Cc2cc(OC)ncn2)NC(=O)[C@H](C)N(C)C(=O)[C@H](Cc2ccccc2)OC(=O)C23CC(CNC(=O)[C@H](Cc4ccccc4)N(C)C(=O)[C@H](CCCC)NC(=O)[C@H](Cc4ccccc4F)NC1=O)(C2)C3 [compound 306, cyclo(FLac-NMeA-Ala6Pyrim4OMe-Nle-Phe2F-Nle-NMeF-amBCP)] (cyclo([NMeA][X51][Nle][Phe(2-F)][Nle][NMeF][X1][PhLac])) | 7000 nM |
| CCCC[C@@H]1NC(=O)[C@H](Cc2ccc(O)cc2)NC(=O)[C@H](CC2CCCCC2)NC(=O)[C@H](CCCCN)NC(=O)[C@H](CCCNC(=N)N)NC(=O)[C@H](Cc2cccc3ccccc23)NC(=O)CSC[C@H](C(N)=O)NC(=O)[C@H](Cc2ccccc2)N(C)C1=O [compound 139, cyclo(INal-R-K-Cha-Y-Nle-NMeF-dCl-ClAc)] | 5990 nM |
| CCCC[C@@H]1NC(=O)[C@H](Cc2cncnc2)NC(=O)[C@H](CCN=[N+]=[N-])N(C)C(=O)[C@H](Cc2ccccc2)OC(=O)C23CC(CNC(=O)[C@H](Cc4cccnc4)N(C)C(=O)[C@H](CCCC)NC(=O)[C@H](Cc4ccccc4F)NC1=O)(C2)C3 [compound 242, cyclo(FLac-NMeDabN3-PyrimAla-Nle-Phe2F-Nle-NMe3Pal-amBCP)] (cyclo([NMe3Pal][X1][PhLac][NMeAha][Ala(pyrimidin-5-yl)][Nle][Phe(2-F)][Nle])) | 80.9 nM |
| CCCC[C@@H]1NC(=O)[C@H](CCCOC)NC(=O)[C@H](CC2CCC2)NC(=O)[C@H](Cc2cccnc2)NC(=O)[C@H](CCCNC(=N)N)NC(=O)[C@H](Cc2ccccc2)NC(=O)CSC[C@@](C)(C(N)=O)NC(=O)[C@H](Cc2ccccc2)N(C)C1=O [compound 55, cyclo(F-R-3Pal-cBuA-NvaOMe-Nle-NMeF-aMeCl-ClAc)] ({CH2CO}-FR[3Pal][Cba][X41][Nle][NMeF][αMeC]-NH2; thioether N-8) | 4410 nM |
| CCCC[C@@H]1NC(=O)[C@H](Cc2ccccc2F)NC(=O)C(CC2CC(F)(F)C2)NC(=O)[C@H](Cc2cncnc2)NC(=O)[C@H](C)N(C)C(=O)[C@H](Cc2ccccc2)OC(=O)C23CC(CNC(=O)[C@H](Cc4cccnc4)N(C)C1=O)(C2)C3 (single isomer, unassigned) [compound 123, cyclo(FLac-NMeA-PyrimAla-rF2Cba-Phe2F-Nle-NMe3Pal-amBCP)] | 8190 nM |
| CCCC[C@@H]1NC(=O)[C@H](Cc2cncnc2)NC(=O)[C@H](CCCn2ccnc2)N(C)C(=O)[C@H](Cc2ccccc2)OC(=O)C23CC(CNC(=O)[C@H](Cc4cccnc4)N(C)C(=O)[C@H](CCCC)NC(=O)[C@H](Cc4ccccc4F)NC1=O)(C2)C3 [compound 240, cyclo(FLac-NMeNvalmid-PyrimAla-Nle-Phe2F-Nle-NMe3Pal-amBCP)] (cyclo([NMe3Pal][X1][PhLac][NMeNva(5-imidazol-1-yl)][Ala(pyrimidin-5-yl)][Nle][Phe(2-F)][Nle])) | 27.2 nM |
| CCCC[C@@H]1NC(=O)[C@H](Cc2ccc(CN3CCCC3)cc2)NC(=O)[C@H](CCCn2ccnc2)N(C)C(=O)[C@H](Cc2ccccc2)NC(=O)[C@H]2C[C@@H](CNC(=O)[C@H](Cc3cccnc3)N(C)C(=O)[C@H](CCCC)NC(=O)[C@H](Cc3ccccc3F)NC1=O)C2 [compound 266, cyclo(F-NMeNvalmid-Phe4cPyrr-Nle-Phe2F-Nle-NMe3Pal-c3amCb1c)] (cyclo(F[NMeNva(5-imidazol-1-yl)][X59][Nle][Phe(2-F)][Nle][NMe3Pal][cBu(1-CO,cis-3-CH2NH)])) | 215 nM |
| CCCCC[C@@H]1NC(=O)[C@H](Cc2ccc(OC)cc2)NC(=O)[C@H](CC2CCC2)NC(=O)[C@H](Cc2cccnc2)NC(=O)[C@H](CCCNC(=N)N)NC(=O)[C@H](Cc2ccccc2)OC(=O)C23CC(CNC(=O)[C@H](Cc4ccccc4)N(C)C1=O)(C2)C3 [compound 211, cyclo(FLac-R-3Pal-cBuA-TyrOMe-Ahp-NMeF-amBCP)] (cyclo([PhLac]R[3Pal][Cba]Y(Me)[Ahp(2)][NMeF][X1])) | 10.8 nM |
| CCCCC[C@@H]1NC(=O)[C@H](Cc2ccc(OC)cc2)NC(=O)[C@H](CC2CCC2)NC(=O)[C@H](Cc2ccc(-c3cccnc3N)cc2)NC(=O)[C@H](CCCNC(=N)N)NC(=O)[C@H](Cc2ccccc2)NC(=O)CSC[C@@](C)(C(N)=O)NC(=O)[C@H](Cc2ccccc2)N(C)C1=O [compound 390, cyclo(F-R-Phe43PyNH2-cBuA-TyrOMe-Ahp-NMeF-aMeCl-ClAc)] | 9.17 nM |
